From ChEMBL document CHEMBL1201862, “PubChem BioAssay data set” (2004) come the findings set out here.

The source made the active and inactive calls.

Broadly, the IC50 is the concentration needed to halve the response being measured. The term CC50 denotes the concentration giving 50% cytotoxicity. In general, EC50 refers to the concentration that produces a half-maximal response. Usually AC50 stands for the concentration at which the activity in the assay is half-maximal.

One experiment addresses T1, Coagulation factor XII (Homo sapiens, UniProt P00748).
T1 sequence (P00748 whole entry): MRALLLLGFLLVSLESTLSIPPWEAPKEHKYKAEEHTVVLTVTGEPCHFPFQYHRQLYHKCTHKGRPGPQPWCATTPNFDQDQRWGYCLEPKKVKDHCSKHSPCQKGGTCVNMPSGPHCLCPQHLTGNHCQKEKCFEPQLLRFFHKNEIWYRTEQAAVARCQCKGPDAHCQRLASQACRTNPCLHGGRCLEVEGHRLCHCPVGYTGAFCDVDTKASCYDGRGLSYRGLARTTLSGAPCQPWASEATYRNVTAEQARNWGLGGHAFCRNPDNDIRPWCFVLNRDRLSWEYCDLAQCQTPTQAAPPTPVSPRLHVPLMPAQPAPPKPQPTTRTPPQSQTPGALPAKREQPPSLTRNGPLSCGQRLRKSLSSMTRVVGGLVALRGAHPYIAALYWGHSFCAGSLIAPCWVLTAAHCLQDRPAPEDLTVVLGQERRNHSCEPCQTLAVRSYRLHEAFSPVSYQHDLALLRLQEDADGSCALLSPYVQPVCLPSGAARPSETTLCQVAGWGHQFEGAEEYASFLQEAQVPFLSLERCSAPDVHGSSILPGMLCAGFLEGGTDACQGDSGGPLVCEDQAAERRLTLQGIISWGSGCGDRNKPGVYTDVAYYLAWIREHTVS
Kind of experiment: Factor XIIa Dose Response Confirmation from Single Well HTS. [Related pubchem assays (depositor defined):AID701]. The class given is functional.

The next experiment concerns the target T2, Bcl-2-related protein A1 (Mus musculus, UniProt Q07440).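 Note: confirmatory dose–response counterscreen on Bfl-1, used to check hits from a UBC13 polyubiquitin inhibitor campaign.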
T2 sequence (Q07440 whole entry): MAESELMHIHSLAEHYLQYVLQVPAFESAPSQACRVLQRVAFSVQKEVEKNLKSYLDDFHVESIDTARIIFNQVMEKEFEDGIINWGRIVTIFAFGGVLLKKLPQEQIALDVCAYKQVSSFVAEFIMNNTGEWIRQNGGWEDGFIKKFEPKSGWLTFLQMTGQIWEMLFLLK
The class given is functional.

In experiment [1] the target is T3, Ubiquitin-conjugating enzyme E2 N (Homo sapiens, UniProt P61088).
T3 sequence (P61088 whole entry): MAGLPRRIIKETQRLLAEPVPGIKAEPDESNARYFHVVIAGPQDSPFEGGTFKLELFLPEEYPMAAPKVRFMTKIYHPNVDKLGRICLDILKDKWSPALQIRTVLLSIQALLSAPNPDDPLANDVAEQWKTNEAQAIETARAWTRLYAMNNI
Format: functional.

The target in experiment [2] is T3, Ubiquitin-conjugating enzyme E2 N. The class given is functional. The source holds these as a separate data set.
Experiment [3] concerns the target T4, Runt-related transcription factor 1/Core-binding factor subunit beta (Homo sapiens, UniProt Q01196+Q13951). Kind of experiment: disruptors of Runt domain/CBFb-SMMHC interaction – biochemical, FRET, Cerulean-Runt, Venus-CBFb-SMMHC, uHTS, […] (AID 1434). The class given is protein assay.
Experiment [4] addresses T4, Runt-related transcription factor 1/Core-binding factor subunit beta. Nature of the experiment: Runt domain/CBFb-SMMHC interaction disruptors – biochemical, TR-FRET (AID 1438). The class given is protein assay.
The nature of experiment [5]: A Cell Based Secondary Assay To Explore Cytotoxicity of Compounds that Sensitize Mycobacterium Tuberculosis to Beta-Lactam Antibiotics. Format: functional.
Experiment [6] deals with T5, G-protein coupled receptor 55 (Homo sapiens, UniProt Q9Y2T6). Kind of experiment: inhibition of LPI-stimulated GPR55 beta-arrestin translocation – imaging, U2OS, beta-arrestin-GFP, LPI agonist, primary screen (AID 2013).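 Note: antagonist potency measured as reduced agonist-driven arrestin aggregation.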 The class given is functional.
The nature of experiment [7]: Trypanosoma cruzi growth suppression in host cells – NIH3T3 host cells, beta-gal luminescence, confirmation (AID 2044).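 Note: intracellular parasites grown in NIH/3T3 mouse fibroblasts as host cells; luminescent beta-galactosidase reporter signal from transgenic T. cruzi replicating inside host cells; inhibitors lower the luminescence signal.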 The class given is functional, cell-based.
Experiment [8] in a line: viability of PTEN-deleted HCT116 cells – cell-based, HCT116 PTEN knockout, dose response (AID 1047).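 Note: HCT116 colon tumor cells with PTEN knocked out; cells exposed to compound for 60 hours before readout; potency for loss of cell viability measured by luminescence.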 The class given is functional.
Experiment [9] in a line: NIH3T3 cell viability loss – ATP luminescence, mouse fibroblasts, counter-screen, dose response (AID 2010).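 Note: cells exposed to compound for about 90 hours before reading.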 The class given is functional, cell-based. In general terms: The purpose of a counterscreen is to sort out artefacts and off-target activity.
Experiment [10] can be described thus: viability of HCT116 lacking mutant beta-catenin – cell-based, human colon tumor, dose response (AID 1045).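 Note: HCT116 colon tumor cells with beta catenin knocked out; cells exposed to compound for 60 hours.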 The class given is functional.
Experiment [11] has as its target T6, Cannabinoid receptor 1 (Homo sapiens, UniProt P21554). Nature of the experiment: SAR analysis of antagonists of the Cannabinoid Receptor 1 using an Image-Based Assay - Set 2. [Related pubchem assays (depositor defined):AID2013, AID2026]. The class given is functional.
The target in experiment [12] is T7, G-protein coupled receptor 35 (Homo sapiens, UniProt Q9HC97). Kind of experiment: SAR analysis of Agonists of the GPR35 Receptor using an Image-Based Assay - Set 2. [Related pubchem assays (depositor defined):AID2013, AID2026]. The class given is functional.
Experiment [13] deals with T8, Cannabinoid receptor 2 (Homo sapiens, UniProt P34972). Kind of experiment: SAR analysis of antagonists of the Cannabinoid Receptor 2 using an Image-Based Assay. [Related pubchem assays (depositor defined):AID2013, AID2026]. The class given is functional.
The target in experiment [14] is T6, Cannabinoid receptor 1. Kind of experiment: SAR analysis of agonists of the Cannabinoid Receptor 1 using an Image-Based Assay - Set 2. [Related pubchem assays (depositor defined):AID2013, AID2026]. The class given is functional.
The target in experiment [15] is T7, G-protein coupled receptor 35. Nature of the experiment: SAR analysis of Antagonists of the GPR35 Receptor using an Image-Based Assay - Set 3. [Related pubchem assays (depositor defined):AID2013, AID2026]. The class given is functional.
Experiment [16] deals with T5, G-protein coupled receptor 55. Kind of experiment: blockade of LPI-induced GPR55 arrestin translocation – imaging, U2OS, beta-arrestin-GFP, LPI agonist, set 2, SAR follow-up (AID 2820). The class given is functional.
For experiment [17], the target named is T8, Cannabinoid receptor 2. Kind of experiment: SAR analysis of agonists of the Cannabinoid Receptor 2 using an Image-Based Assay. [Related pubchem assays (depositor defined):AID2013, AID2026]. The class given is functional.
A further experiment addresses Cytochrome P450 2C9 (Homo sapiens, UniProt P11712).
A short description of experiment [18]: Luminescence Cell-Based Dose Response HTS to Identify Inhibitors of Luciferase Translation or Activity in H4-C Neuroglioblastoma Cells. [Related pubchem assays: 1813 (Primary HTS), 1827 (Project Summary)]. The class given is functional.
The nature of experiment [19]: Luminescence Cell-Based Dose Response HTS to Identify Activators of Luciferase Translation or Activity in H4-C Neuroglioblastoma Cells. [Related pubchem assays: 1829 (Project Summary), 1814 (Primary HTS)]. Format: functional.
A short description of experiment [20]: luciferase reporter signal suppression in cells – H4 neuroglioma cells, luminescence, dose response (AID 1990). Format: functional, cell-based. Background: Reporter assays use an easily measured gene product as a stand-in for the process of interest.
A short description of experiment [21]: Luminescence Cell-Based Dose Retest to Confirm Activators of 5'UTR Stem-Loop Driven Alpha-Synuclein mRNA Translation in H4 Neuroglioblastoma Cells. [Related pubchem assays (depositor defined):AID1813, AID1829]. The class given is functional.
A short description of experiment [22]: Luminescence Cell-Based Dose Response HTS to Identify Activators of 5'UTR Stem-Loop Driven Prion Protein mRNA Translation in H4-C Neuroglioblastoma Cells. [Related pubchem assays: 1829 (Project Summary), 1814 (Primary HTS)]. The class given is functional.
Experiment [23] in a line: Luminescence Cell-Based Dose HTS Response to Identify Inhibitors of 5'UTR Stem-Loop Driven Prion Protein mRNA Translation in H4-C Neuroglioblastoma Cells. [Related pubchem assays (depositor defined):AID1814, AID1827]. The class given is functional.
Experiment [24] in a line: alpha-synuclein stem-loop luciferase translation blockers – H4 neuroglioma cells, luminescence, confirmation (AID 1988). The class given is functional, cell-based.
The nature of experiment [25]: Luminescence Cell-Based Dose Confirmation HTS to Identify Inhibitors of 5'UTR Stem-Loop Driven Alpha-Synuclein mRNA Translation in H4 Neuroglioblastoma Cells. [Related pubchem assays: 1827 (Project Summary), 1813 (Primary HTS)]. The class given is functional.
Experiment [26] is described as follows: HEK-293T viability loss after treatment – luminescence, T-cell screen hits, cytotoxicity control for TCR NF-kB inhibitor project, dose response (AID 489026).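 Note: cells exposed to compound about 14 hours before the viability readout.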 The class given is functional, cell-based.

T5 sequence (Q9Y2T6 whole entry): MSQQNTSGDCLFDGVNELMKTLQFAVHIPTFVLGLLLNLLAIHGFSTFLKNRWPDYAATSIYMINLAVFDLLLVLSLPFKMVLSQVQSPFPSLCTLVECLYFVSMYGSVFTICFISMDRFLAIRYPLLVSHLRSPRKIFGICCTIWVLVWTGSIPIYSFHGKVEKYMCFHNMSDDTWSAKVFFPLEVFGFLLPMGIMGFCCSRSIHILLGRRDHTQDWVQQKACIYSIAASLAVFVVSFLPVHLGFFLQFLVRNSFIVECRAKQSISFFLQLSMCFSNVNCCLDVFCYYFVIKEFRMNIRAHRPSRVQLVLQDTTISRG
T7 sequence (Q9HC97 whole entry): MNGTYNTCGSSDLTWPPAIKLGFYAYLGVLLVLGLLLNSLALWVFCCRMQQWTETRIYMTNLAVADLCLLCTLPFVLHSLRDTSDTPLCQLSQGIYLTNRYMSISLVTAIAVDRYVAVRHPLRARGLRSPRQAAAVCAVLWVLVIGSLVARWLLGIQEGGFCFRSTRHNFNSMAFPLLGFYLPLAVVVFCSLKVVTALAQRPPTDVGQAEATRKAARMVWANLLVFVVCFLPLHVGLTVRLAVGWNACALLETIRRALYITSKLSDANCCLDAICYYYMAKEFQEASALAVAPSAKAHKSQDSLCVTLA
T8 sequence (P34972 whole entry): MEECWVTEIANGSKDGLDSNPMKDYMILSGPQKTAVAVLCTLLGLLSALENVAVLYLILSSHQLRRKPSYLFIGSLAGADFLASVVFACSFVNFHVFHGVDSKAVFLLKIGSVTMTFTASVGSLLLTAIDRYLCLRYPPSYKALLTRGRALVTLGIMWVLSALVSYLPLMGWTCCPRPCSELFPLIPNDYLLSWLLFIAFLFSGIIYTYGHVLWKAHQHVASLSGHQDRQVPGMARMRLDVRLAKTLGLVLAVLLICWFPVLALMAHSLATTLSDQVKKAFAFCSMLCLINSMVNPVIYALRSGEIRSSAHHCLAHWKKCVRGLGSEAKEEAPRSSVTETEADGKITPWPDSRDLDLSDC
T4 sequence (Q01196 whole entry, the tested form may be a part): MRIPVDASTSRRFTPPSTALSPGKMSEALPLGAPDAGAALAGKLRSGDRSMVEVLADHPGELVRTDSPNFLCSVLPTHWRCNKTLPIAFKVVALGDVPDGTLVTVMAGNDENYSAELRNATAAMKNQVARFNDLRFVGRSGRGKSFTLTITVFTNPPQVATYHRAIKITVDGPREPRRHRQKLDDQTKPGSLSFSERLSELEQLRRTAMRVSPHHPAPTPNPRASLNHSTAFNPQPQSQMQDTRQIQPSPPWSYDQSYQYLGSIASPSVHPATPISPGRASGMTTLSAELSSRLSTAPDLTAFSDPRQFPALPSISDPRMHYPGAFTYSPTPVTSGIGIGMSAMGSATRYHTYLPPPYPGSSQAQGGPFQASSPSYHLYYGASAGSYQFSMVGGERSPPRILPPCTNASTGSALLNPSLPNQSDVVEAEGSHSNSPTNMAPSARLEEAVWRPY
T4 sequence (Q13951 whole entry, the tested form may be a part): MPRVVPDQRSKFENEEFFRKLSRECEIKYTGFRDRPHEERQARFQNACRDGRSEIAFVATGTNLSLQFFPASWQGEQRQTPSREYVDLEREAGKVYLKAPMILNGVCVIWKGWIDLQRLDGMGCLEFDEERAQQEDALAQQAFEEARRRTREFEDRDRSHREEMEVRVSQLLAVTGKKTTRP
T6 sequence (P21554 whole entry): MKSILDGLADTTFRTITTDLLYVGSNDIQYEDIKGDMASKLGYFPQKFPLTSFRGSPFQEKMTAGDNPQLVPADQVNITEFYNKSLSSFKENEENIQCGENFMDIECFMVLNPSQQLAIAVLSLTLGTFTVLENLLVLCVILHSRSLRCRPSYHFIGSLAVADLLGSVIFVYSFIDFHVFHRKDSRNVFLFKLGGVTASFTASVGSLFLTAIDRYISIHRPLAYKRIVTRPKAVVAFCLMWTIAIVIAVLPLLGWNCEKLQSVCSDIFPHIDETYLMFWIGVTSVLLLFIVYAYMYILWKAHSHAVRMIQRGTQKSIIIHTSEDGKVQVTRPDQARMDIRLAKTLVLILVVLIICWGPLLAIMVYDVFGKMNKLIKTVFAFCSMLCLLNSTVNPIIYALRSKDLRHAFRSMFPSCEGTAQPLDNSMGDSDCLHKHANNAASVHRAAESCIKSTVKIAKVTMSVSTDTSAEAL
Chain of Cytochrome P450 2C9 (P11712 whole entry): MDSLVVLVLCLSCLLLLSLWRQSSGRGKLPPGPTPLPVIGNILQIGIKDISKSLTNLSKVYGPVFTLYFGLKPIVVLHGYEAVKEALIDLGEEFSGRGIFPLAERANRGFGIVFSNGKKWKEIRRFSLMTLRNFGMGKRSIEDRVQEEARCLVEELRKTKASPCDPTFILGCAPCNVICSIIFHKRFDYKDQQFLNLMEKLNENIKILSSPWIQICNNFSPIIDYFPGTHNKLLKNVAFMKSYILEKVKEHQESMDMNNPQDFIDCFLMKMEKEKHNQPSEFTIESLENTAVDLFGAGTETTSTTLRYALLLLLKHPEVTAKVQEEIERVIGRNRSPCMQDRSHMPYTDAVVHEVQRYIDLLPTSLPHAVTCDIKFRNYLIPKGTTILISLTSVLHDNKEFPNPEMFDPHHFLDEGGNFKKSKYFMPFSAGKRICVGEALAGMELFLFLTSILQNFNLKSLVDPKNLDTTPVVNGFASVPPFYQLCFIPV

On to `O=C1N=C(c2ccccc2)S/C1=C\c1cccs1`, for which the IC50 at Coagulation factor XII is > 50 µM (inactive).

Turning to `C/C(=N\NC(=O)CSCc1ccc([N+](=O)[O-])cc1)c1ccccc1`, the values for the IC50 (on Bcl-2-related protein A1; in [1]; in [2]) were > 20 µM (inactive), 6.86 µM (active) and 4.9 µM (active), respectively.

Take `Cc1cc2n(n1)C(c1ccc(N(C)C)cc1)Nc1ccccc1-2` (centres undefined): the 50% inhibitory concentration (IC50) is 48.3 µM (active) in experiment [3] and > 100 µM (inactive) in experiment [4].

Regarding `CC(C)(C)NS(=O)(=O)c1ccc(NC(=O)C(Sc2ccccc2)c2ccccc2)cc1` (centres undefined), the CC50 in [5] is 27.1 µM (active). Further, the IC50 was 678 nM (active) in experiment [6]; 2.71 µM (active) at Cannabinoid receptor 1 [11]; > 32 µM (inactive) on Cannabinoid receptor 2 [13]; > 32 µM (inactive) in experiment [15]; 978 nM (active) in [16]. Moreover, the EC50 was 2.31 µM (active) in [7]; 14.5 µM (active) in experiment [8]; > 60 µM (not active) in [9]; 14.7 µM (active) in experiment [10]; > 32 µM (inactive) in experiment [12]; > 32 µM (inactive) on Cannabinoid receptor 1 [14]. Moreover, the EC50 on Cannabinoid receptor 2 [17] was > 32 µM (inactive). The AC50 at Cytochrome P450 2C9 was 2 µM (inconclusive).

On to `COc1ccc(/C=C/C(=O)c2cc(F)ccc2OC(=O)c2ccccc2)cc1OC`, for which the EC50 was 697 nM (active) in experiment [18]; 697 nM (inconclusive) in experiment [19]; 12.8 µM (active) in [20]; 666 nM (inconclusive) in [21]; 699 nM (inconclusive) in [22]; 699 nM (active) in experiment [23]. The EC50 in experiment [24] is < 195 nM (active); in [25], 666 nM (active). Moreover, in experiment [26], the IC50 was > 80 µM (inactive).
